Laboratory results as given in ChEMBL document CHEMBL3272250, “Quinoline derivatives as antiallergy agents. 2. Fused-ring quinaldic acids” (1977).

System: Rattus norvegicus
Assay: Antiallergic activity against anti-egg albumin homocytotropic antibody injected Sprague-Dawley rat assessed as inhibition of passive cutaneous anaphylaxis reaction administered iv at the time of egg albumin antigen challenge or ip 30 mins prior to egg albumin antigen challenge
Type: functional
Conditions: read-out: ID50 (the source's name)

Row | SMILES | ED50
1 | O=C(O)c1cc(=O)c2c(ccc3[nH]c(C(=O)O)cc(=O)c32)[nH]1 | 2.5 mg/kg
2 | CCCCc1cc2c(=O)cc(C(=O)O)[nH]c2c2c(=O)cc(C(=O)O)[nH]c12 [BUFROLIN] | 0.005 mg/kg
3 | CCCCCc1cc2c(=O)cc(C(=O)O)[nH]c2c2c(=O)cc(C(=O)O)[nH]c12 | 0.05 mg/kg
4 | O=C([O-])c1cc(=O)c2c(OCC(O)COc3cccc4oc(C(=O)[O-])cc(=O)c34)cccc2o1.[Na+].[Na+] [CROMOLYN SODIUM] | 2.5 mg/kg
5 | O=C(O)c1cc(=O)c2ccc3c(ccc4c(=O)cc(C(=O)O)[nH]c43)c2[nH]1 | 0.005 mg/kg
6 | O=C(O)c1cc(=O)c2c(ccc3c(=O)cc(C(=O)O)[nH]c32)[nH]1 | 1 mg/kg
7 | O=C(O)c1cc(=O)c2c([nH]1)c1c(=O)cc(C(=O)O)[nH]c1c1c(=O)cc(C(=O)O)[nH]c21 | 0.5 mg/kg
8 | O=C(O)c1cc(=O)c2c(cc(C(=O)O)c3c(=O)cc(C(=O)O)[nH]c32)[nH]1 | 10 mg/kg
9 | Cc1c(C(=O)[O-])[nH]c2c(C)c3[nH]c(C(=O)O)c(C)c(=O)c3cc2c1=O.[Na+] | 5 mg/kg
10 | O=C(O)c1cc(=O)c2c(C(F)(F)F)c3c(=O)cc(C(=O)O)[nH]c3c(Cl)c2[nH]1 | 5 mg/kg
11 | O=C(O)c1cc(=O)c2cc(Cl)c3c(ccc4c(=O)cc(C(=O)O)[nH]c43)c2[nH]1 | 0.05 mg/kg
12 | Cc1c2[nH]c(C(=O)[O-])cc(=O)c2cc2c(=O)cc(C(=O)[O-])[nH]c12.[Na+].[Na+] | 0.25 mg/kg
13 | Cc1c(C(=O)O)[nH]c2ccc3[nH]c(C(=O)O)c(C)c(=O)c3c2c1=O | 10 mg/kg
14 | O=C(O)c1cc(=O)c2cc3c(=O)cc(C(=O)O)[nH]c3c(F)c2[nH]1 | 0.5 mg/kg
15 | O=C([O-])c1cc(=O)c2cc3c(=O)cc(C(=O)[O-])[nH]c3c(C(=O)O)c2[nH]1.[Na+].[Na+] | 0.1 mg/kg
16 | Cc1c2c(=O)cc(C(=O)[O-])[nH]c2c(Cl)c2[nH]c(C(=O)[O-])cc(=O)c12.[Na+].[Na+] | 0.01 mg/kg
17 | N#Cc1c2[nH]c(C(=O)O)cc(=O)c2cc2c(=O)cc(C(=O)O)[nH]c12 | 0.05 mg/kg
18 | COc1c2[nH]c(C(=O)O)cc(=O)c2cc2c(=O)cc(C(=O)O)[nH]c12 | 0.1 mg/kg
19 | O=C(O)c1cc(=O)c2cc3c(=O)cc(C(=O)O)[nH]c3c(Cl)c2[nH]1 | 0.05 mg/kg
20 | N#Cc1c2c(=O)cc(C(=O)O)[nH]c2c(Cl)c2[nH]c(C(=O)O)cc(=O)c12 | 0.05 mg/kg
21 | O=C(O)c1ccc2ccccc2n1 [QUINALDIC ACID] | 50 mg/kg

Organism: Rattus norvegicus
Assay: Ratio of cromolyn sodium ID50 to compound ID50 for inhibition of passive cutaneous anaphylaxis reaction in Sprague-Dawley rat
Type: functional
Conditions: not given

Row | SMILES | Ratio
22 | CCCCc1cc2c(=O)cc(C(=O)O)[nH]c2c2c(=O)cc(C(=O)O)[nH]c12 [BUFROLIN] | 500
23 | O=C(O)c1cc(=O)c2ccc3c(ccc4c(=O)cc(C(=O)O)[nH]c43)c2[nH]1 | 500
24 | Cc1c2c(=O)cc(C(=O)[O-])[nH]c2c(Cl)c2[nH]c(C(=O)[O-])cc(=O)c12.[Na+].[Na+] | >250
